The results in this text go back to patent US20260272988A1, “COMPOSITION COMPRISING MILK EXTRACELLULAR VESICLES AND GALACTOSE” (FrieslandCampina Nederland B.V., priority 2023, published 2026).

The experiment relates to C2C12 myotubes. Kind of experiment: Seahorse mito-stress test, oxygen consumption rate (OCR) in differentiated C2C12 myotubes. It counts as cell-based. Particulars: for basal respiration (OCR): C2C12 myotubes exposed 24 hours, compared to control and vehicle control (PBS), FIG. 1 / FIG. 2. The method, then:
The execution of the “Seahorse” experiment as used in this example is explained in more detail in Traba et al. (2016) J. Vis. Exp. (117), e54918 especially in FIG. 1 and text relating thereto, and in Rose S, et al. (2014) Oxidative Stress Induces Mitochondrial Dysfunction in a Subset of Autism Lymphoblastoid Cell Lines in a Well-Matched Case Control Cohort. PLoS ONE 9(1): e85436. doi:10.1371/journal.pone.0085436. Briefly, in the Seahorse essay, the Oxygen Consumption Rate (OCR) is measured before and after the addition of inhibitors to derive several parameters of mitochondrial respiration. Initially, baseline cellular OCR is measured, from which basal respiration can be derived by subtracting non-mitochondrial respiration. Next oligomycin, a complex V inhibitor, is added and the resulting OCR is used to derive ATP-linked respiration (by subtracting the oligomycin rate from baseline cellular OCR) and proton leak respiration (by subtracting non-mitochondrial respiration from the oligomycin rate). Next carbonyl cyanide-p-trifluoromethoxyphenyl-hydrazon (FCCP), a protonophore, is added to collapse the inner membrane gradient, allowing the ETC to function at its maximal rate, and maximal respiratory capacity is derived by subtracting nonmitochondrial respiration from the FCCP rate. […] Mitochondrial reserve capacity is calculated by subtracting basal respiration from maximal respiratory capacity. C2C12 cells were routinely cultured in High Glucose Dulbecco's Modified Eagle's Medium (DMEM) supplemented with 10% (v/v) fetal calf serum (FCS), 2 mM glutamine, 25 mM HEPES pH 7.2 and 1% (v/v/v) pen/strep/amphotericin B at 5% CO2 and 37 degrees Celsius. For Seahorse experiments, C2C12 myoblasts (passage 10-20, ATCC) were plated in the morning in XFe96 Seahorse culture plates at a density of 30.000 cells/well. Cells were kept in the flow cabinet for 1 h before being transferred to the incubator. After approximately 6-8 h cells, culture medium was replaced with C2C12 differentiation medium (DMEM with 2% horse serum). C2C12 cells were allowed to differentiate for 5 to 7 days. On the day before the Seahorse run, myotubes were exposed to different nutrients and/or Extracellular Vesicles (mEVs) for 24 hours. Exposure medium was prepared in C2C12 differentiation medium. Galactose and glucose were supplemented to differentiation medium from 1M stocks in H2O. […] In detail, following calibration and equilibration, plates were analyzed in measure/mix cycles of 3 minutes/2 minutes, respectively, in 180 ul Seahorse assay medium. […] In the final injection the nuclear fluorescent stain, Hoechst (40 uM), was also injected, to allow for cell number quantification. […] Images were analyzed using in-house generated scripts in ImageJ and R for processing data. […]

Each structure is given as a SMILES string.

Turning to `O=C[C@H](O)[C@@H](O)[C@@H](O)[C@H](O)CO` [Sample 6, Galactose], the “basal respiration (OCR)” value is on record as “increase”. With `O=C[C@H](O)[C@@H](O)[C@@H](O)[C@H](O)CO` [galactose, D-galactose], the “effect of a higher concentration on basal respiration” value (C2C12 myotubes, 1.4, 2.75, 5.5 mM, FIG. 2) is listed as “increases”. As for `O=C[C@H](O)[C@@H](O)[C@@H](O)[C@H](O)CO` [Sample 7, Galactose], the “basal respiration (OCR)” value is listed as “increase”. Still for that read-out and setting: the result for `O=C[C@H](O)[C@@H](O)[C@@H](O)[C@H](O)CO` [Sample 8, Galactose] reads “increase”.
